Test results reported in ChEMBL document CHEMBL4811281, “Identification of aryl sulfonamides as novel and potent inhibitors of NaV1.5” (Bioorg Med Chem Lett, 2021).

Key:
[1] = Intrinsic clearance in human liver microsomes; format: ADME, Microsome; settings: read-out: CLH
[2] = Intrinsic clearance in mouse liver microsomes; format: ADME, Microsome; settings: read-out: CLH
Cytochrome P450 2D6 = Cytochrome P450 2D6 (Homo sapiens, UniProt P10635); test: Inhibition of CYP2D6 (unknown origin); format: ADME
[3] = Ratio of drug level in brain to plasma in FVB mouse at 10 mg/kg, po measured after 2 hrs; format: ADME, organism-based; settings: read-out: BPR
[4] = Clearance in FVB mouse at 1 mg/kg, iv; format: ADME, organism-based; settings: in vivo
[5] = Volume of distribution at steady state in FVB mouse at 1 mg/kg, iv; format: ADME, organism-based; settings: in vivo, read-out: Vdss
[6] = Plasma concentration in FVB mouse at 10 mg/kg, po measured after 2 hrs; format: ADME, organism-based
[7] = Inhibition of human Nav1.5 VSD4 F1759A mutant by automated voltage clamp electrophysiology
[8] = molecular target: T1, Sodium channel protein type 5 subunit alpha (Homo sapiens, UniProt Q14524); test: Inhibition of human Nav1.5 by automated voltage clamp electrophysiology
[9] = AUC in FVB mouse at 1 mg/kg, iv; format: ADME, organism-based; parameters: dose 1 mg/kg; settings: in vivo
[10] = Drug uptake in FVB mouse brain at 10 mg/kg, po measured after 2 hrs; format: ADME, organism-based; settings: read-out: Drug uptake
Cytochrome P450 2C9 = Cytochrome P450 2C9 (Homo sapiens, UniProt P11712); test: Inhibition of CYP2C9 (unknown origin); format: ADME
Sequence of Cytochrome P450 2C9 (P11712 whole entry): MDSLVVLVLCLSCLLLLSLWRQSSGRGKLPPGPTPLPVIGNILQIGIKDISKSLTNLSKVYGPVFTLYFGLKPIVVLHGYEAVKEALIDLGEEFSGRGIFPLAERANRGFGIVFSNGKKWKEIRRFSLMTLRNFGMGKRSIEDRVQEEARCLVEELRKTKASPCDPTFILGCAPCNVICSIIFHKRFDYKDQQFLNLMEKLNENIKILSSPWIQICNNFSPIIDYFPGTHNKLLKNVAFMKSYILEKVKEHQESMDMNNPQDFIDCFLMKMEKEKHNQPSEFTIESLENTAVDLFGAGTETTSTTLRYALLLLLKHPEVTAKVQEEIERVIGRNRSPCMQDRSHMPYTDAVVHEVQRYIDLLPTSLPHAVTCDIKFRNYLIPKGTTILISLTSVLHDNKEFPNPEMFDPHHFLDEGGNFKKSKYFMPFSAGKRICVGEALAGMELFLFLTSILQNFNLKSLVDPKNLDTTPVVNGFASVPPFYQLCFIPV

[11] = AUC in FVB mouse at 10 mg/kg, po; format: ADME, organism-based; parameters: dose 10 mg/kg; settings: in vivo
Cytochrome P450 2C19 = Cytochrome P450 2C19 (Homo sapiens, UniProt P33261); test: Inhibition of CYP2C19 (unknown origin); format: ADME
Cytochrome P450 1A2 = Cytochrome P450 1A2 (Homo sapiens, UniProt P05177); test: Inhibition of CYP1A2 (unknown origin); format: ADME
Sequence of Cytochrome P450 1A2 (P05177 whole entry): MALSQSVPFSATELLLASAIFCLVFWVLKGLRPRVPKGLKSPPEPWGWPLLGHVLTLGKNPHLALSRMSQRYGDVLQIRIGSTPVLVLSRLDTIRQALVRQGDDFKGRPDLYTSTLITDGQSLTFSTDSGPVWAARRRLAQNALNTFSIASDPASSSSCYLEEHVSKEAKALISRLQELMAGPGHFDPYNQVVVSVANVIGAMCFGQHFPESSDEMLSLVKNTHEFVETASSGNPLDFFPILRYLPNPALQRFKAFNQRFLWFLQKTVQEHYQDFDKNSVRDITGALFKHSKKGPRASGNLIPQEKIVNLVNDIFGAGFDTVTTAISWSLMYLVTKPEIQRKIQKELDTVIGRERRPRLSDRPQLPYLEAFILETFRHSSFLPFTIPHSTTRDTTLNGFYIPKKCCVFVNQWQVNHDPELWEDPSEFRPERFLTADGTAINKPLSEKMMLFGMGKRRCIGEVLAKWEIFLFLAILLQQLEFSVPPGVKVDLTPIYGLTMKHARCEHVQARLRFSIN

[12] = Oral bioavailability in FVB mouse at 10 mg/kg; format: ADME, organism-based; settings: in vivo
[13] = Cmax in FVB mouse at 10 mg/kg, po; format: ADME, organism-based; parameters: route oral, dose 10 mg/kg; settings: in vivo
Cytochrome P450 3A4 = Cytochrome P450 3A4 (Homo sapiens, UniProt P08684); test: Inhibition of CYP3A4 (unknown origin); format: ADME
[14] = molecular target: T1, Sodium channel protein type 5 subunit alpha; test: Displacement of [3H]BNZA from Nav1.5 (unknown origin)
[15] = Half life in FVB mouse at 10 mg/kg, po; format: ADME, organism-based; settings: in vivo
[16] = Half life in FVB mouse at 1 mg/kg, iv; format: ADME, organism-based; settings: in vivo
hERG (KCNH2) = hERG (KCNH2) (Homo sapiens, UniProt Q12809); test: Inhibition of human ERG at 10 uM by voltage clamp method
[17] = molecular target: T2, Sodium channel protein type 8 subunit alpha (Homo sapiens, UniProt Q9UQD0); test: Inhibition of human Nav1.6 by whole cell voltage clamp analysis
T2 sequence (Q9UQD0 whole entry): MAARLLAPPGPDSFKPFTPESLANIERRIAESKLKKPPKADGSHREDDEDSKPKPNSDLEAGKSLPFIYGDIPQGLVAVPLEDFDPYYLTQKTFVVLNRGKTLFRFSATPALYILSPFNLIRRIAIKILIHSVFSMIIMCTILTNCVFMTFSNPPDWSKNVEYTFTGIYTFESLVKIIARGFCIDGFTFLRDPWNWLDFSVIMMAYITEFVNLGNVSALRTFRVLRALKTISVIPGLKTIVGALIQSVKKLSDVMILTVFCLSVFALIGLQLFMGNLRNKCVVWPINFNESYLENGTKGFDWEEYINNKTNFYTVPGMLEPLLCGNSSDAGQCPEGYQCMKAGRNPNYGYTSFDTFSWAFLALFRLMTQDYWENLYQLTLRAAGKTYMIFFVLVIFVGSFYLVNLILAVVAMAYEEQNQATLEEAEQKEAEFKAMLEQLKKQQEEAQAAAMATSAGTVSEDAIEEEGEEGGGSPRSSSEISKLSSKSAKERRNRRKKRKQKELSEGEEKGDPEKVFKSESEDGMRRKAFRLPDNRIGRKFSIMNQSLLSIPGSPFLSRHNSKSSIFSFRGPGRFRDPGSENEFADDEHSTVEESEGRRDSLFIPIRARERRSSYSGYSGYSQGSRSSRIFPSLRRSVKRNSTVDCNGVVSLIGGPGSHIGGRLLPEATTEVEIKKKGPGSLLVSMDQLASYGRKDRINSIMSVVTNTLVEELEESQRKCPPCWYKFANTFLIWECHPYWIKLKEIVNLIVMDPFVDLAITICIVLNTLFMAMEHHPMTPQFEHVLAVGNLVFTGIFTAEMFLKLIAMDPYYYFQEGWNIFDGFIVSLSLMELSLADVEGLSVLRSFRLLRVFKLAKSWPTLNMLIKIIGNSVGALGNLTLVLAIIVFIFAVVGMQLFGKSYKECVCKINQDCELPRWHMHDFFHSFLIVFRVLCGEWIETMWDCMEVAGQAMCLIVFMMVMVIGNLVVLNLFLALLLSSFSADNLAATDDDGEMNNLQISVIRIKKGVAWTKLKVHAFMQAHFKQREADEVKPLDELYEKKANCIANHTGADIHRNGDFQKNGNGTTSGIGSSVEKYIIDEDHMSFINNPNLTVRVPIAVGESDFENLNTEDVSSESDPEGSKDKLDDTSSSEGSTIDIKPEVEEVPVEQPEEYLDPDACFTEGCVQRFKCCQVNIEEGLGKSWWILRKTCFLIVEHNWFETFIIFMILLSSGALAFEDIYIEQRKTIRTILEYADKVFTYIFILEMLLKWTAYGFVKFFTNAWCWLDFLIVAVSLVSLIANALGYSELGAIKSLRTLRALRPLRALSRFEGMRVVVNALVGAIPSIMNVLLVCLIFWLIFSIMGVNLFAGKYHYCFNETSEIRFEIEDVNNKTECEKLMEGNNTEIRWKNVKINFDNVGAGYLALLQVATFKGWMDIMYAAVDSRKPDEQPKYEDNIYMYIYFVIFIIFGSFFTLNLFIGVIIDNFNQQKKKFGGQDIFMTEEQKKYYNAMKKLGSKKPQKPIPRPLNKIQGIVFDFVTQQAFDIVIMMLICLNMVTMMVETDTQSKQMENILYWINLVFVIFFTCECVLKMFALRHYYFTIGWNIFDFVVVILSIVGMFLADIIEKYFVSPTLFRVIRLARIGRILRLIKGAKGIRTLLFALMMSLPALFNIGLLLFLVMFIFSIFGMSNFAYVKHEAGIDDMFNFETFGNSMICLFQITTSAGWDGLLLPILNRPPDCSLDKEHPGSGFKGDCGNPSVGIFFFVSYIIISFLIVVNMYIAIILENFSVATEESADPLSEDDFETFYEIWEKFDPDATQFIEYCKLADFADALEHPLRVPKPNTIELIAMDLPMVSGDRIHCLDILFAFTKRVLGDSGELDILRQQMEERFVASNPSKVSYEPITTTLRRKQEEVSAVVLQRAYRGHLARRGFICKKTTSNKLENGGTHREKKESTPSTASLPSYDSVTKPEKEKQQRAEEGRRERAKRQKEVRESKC

[18] = molecular target: Voltage-gated potassium channel, IKs; KCNQ1(Kv7.1)/KCNE1(MinK) (Homo sapiens, UniProt P51787+P15382); test: Inhibition of KvLQT1/mink (unknown origin) by voltage clamp method; format: protein-complex assay
[19] = molecular target: T1, Sodium channel protein type 5 subunit alpha; test: Inhibition of human Nav1.5 expressed in HEK293 cells assessed as inhibition of peak channel current at holding potential of -95 mV; format: cell-based
[20] = molecular target: T3, Sodium channel protein type 2 subunit alpha (Homo sapiens, UniProt Q99250); test: Inhibition of human Nav1.2 expressed in HEK293 cells by sodium influx assay; format: cell-based
T3 sequence (Q99250 whole entry): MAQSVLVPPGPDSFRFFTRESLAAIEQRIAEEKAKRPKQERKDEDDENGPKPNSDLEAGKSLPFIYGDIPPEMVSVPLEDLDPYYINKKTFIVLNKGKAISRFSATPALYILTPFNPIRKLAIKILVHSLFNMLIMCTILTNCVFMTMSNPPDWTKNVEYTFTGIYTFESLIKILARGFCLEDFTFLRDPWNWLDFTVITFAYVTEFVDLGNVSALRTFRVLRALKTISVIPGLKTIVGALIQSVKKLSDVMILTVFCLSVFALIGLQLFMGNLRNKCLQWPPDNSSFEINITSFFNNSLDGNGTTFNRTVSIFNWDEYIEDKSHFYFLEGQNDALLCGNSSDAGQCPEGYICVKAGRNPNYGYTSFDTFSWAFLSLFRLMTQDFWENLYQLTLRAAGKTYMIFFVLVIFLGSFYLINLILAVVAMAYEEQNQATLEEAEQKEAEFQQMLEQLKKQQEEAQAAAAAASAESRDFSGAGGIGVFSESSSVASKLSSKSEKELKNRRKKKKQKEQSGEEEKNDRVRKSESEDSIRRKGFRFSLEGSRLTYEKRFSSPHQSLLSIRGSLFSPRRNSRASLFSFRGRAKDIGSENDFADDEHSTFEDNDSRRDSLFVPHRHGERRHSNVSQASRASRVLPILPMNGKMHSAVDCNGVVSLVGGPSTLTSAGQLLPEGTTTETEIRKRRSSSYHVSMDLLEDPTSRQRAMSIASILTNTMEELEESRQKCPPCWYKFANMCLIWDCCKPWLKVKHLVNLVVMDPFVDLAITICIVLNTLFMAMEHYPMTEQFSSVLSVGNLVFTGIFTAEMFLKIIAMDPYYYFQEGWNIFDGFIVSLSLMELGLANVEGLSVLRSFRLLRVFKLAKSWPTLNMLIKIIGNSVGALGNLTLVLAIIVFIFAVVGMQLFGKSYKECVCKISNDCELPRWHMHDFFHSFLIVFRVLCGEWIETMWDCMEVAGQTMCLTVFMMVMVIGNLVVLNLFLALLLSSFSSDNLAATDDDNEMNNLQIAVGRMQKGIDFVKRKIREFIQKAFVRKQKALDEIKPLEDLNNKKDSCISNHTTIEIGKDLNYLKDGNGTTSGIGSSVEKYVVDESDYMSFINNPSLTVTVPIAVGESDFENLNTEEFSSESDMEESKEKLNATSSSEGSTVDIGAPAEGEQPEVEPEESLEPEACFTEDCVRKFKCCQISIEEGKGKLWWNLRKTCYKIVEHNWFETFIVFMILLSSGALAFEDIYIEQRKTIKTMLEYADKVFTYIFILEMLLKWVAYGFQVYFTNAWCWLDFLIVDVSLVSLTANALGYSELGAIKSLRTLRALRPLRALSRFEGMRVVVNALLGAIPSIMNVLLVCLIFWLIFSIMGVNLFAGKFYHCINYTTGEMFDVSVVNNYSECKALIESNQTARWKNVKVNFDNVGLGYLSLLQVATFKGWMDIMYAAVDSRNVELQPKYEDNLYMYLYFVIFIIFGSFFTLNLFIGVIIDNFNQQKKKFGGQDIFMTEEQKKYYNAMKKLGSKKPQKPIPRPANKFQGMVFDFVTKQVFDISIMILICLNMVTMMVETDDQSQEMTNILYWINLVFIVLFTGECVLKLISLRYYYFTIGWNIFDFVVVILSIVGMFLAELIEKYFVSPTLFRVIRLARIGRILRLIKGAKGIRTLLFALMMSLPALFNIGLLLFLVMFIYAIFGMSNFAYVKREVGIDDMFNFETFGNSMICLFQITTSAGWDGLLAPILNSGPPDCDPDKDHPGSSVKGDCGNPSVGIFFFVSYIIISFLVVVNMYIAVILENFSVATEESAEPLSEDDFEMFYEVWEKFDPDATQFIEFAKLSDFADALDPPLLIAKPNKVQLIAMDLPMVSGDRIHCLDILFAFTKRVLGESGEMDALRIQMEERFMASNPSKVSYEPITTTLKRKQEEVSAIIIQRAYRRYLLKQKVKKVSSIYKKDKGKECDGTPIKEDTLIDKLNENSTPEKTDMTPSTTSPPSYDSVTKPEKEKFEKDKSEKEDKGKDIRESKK

[21] = molecular target: Sodium channel protein type 9 subunit alpha (Homo sapiens, UniProt Q15858); test: Inhibition of human Nav1.7 expressed in HEK293 cells by sodium flux analysis; format: cell-based
Nav1.5 (SCN5A) = Nav1.5 (SCN5A) (Homo sapiens, UniProt Q14524); test: State dependent inhibition of human Nav1.5 expressed in HEK293 cells assessed as shift in compound IC50 at rested state at membrane potential of -120 mV relative to partially inactivated state at membrane potential of -95 mV; format: cell-based; settings: HEK293 cells that express human Nav1.5, read-out: FC
[22] = molecular target: T3, Sodium channel protein type 2 subunit alpha; test: Inhibition of human Nav1.2 by whole cell voltage clamp analysis
[23] = Anti-arrythmic activity in human iPSC-derived cardiomyocytes assessed as reduction in upstroke velocity dV/dt(Vmax) at 100 nM in presence of 15 to 30 nM ATX-II by current clamp analysis; format: functional; settings: iPSC-CM
[24] = molecular target: T1, Sodium channel protein type 5 subunit alpha; test: Inhibition of human Nav1.5 expressed in HEK293 cells assessed as inhibition of late channel current at holding potential of -95 mV; format: cell-based
[25] = molecular target: T1, Sodium channel protein type 5 subunit alpha; test: Inhibition of human Nav1.5 by V1/2 protocol based analysis
[26] = molecular target: T4, Sodium channel protein type 1 subunit alpha (Homo sapiens, UniProt P35498); test: Inhibition of human Nav1.1 expressed in HEK293 cells by sodium influx assay; format: cell-based
[27] = molecular target: T3, Sodium channel protein type 2 subunit alpha; test: Inhibition of human Nav1.2 by V1/2 protocol based analysis
[28] = molecular target: T2, Sodium channel protein type 8 subunit alpha; test: Inhibition of human Nav1.6 expressed in HEK293 cells by sodium influx assay; format: cell-based
[29] = molecular target: T2, Sodium channel protein type 8 subunit alpha; test: Inhibition of human Nav1.6 by V1/2 protocol based analysis
[30] = molecular target: T4, Sodium channel protein type 1 subunit alpha; test: Inhibition of human Nav1.1 by whole cell voltage clamp analysis
[31] = molecular target: Voltage-dependent L-type calcium channel subunit alpha-1C (Homo sapiens, UniProt Q13936); test: Inhibition of Cav1.2 (unknown origin) by voltage clamp assay
[32] = molecular target: T1, Sodium channel protein type 5 subunit alpha; test: Inhibition of human Nav1.5 expressed in HEK293 cells by sodium influx assay; format: cell-based
[33] = molecular target: Kv channel-interacting protein 2/Potassium voltage-gated channel subfamily D member 3 (Homo sapiens, UniProt Q9UK17+Q9NS61); test: Inhibition of Kv4.3/KChIP2.2 (unknown origin) by voltage clamp method; format: protein-complex assay
[34] = molecular target: T4, Sodium channel protein type 1 subunit alpha; test: Inhibition of human Nav1.1 by V1/2 protocol based analysis
[35] = Anti-arrythmic activity in human iPSC-derived cardiomyocytes assessed as shortening of ATX-II induced APD90 prolongation at 100 nM in presence of 15 to 30 nM ATX-II by current clamp analysis; format: functional; settings: iPSC-CM

O=S(=O)(Nc1cccc(F)n1)c1cc(F)c(OC2CCN(CC(F)(F)F)CC2c2ccc(F)c(F)c2)cc1F (single isomer, unassigned; (-))
CLint scaled [1]: 9 mL/min/kg
CLint scaled [2]: 50 mL/min/kg
inhibition (INH) (Cytochrome P450 2D6): Not Active
Kp at 2 h [3]: 0.28
clearance [4]: 1.8 mL/min/kg
Vd [5]: 0.6 L/kg
concentration at 2 h [6]: 9.37 µM
IC50 [7]: > 10000 nM
IC50 [8]: 240 nM
AUC [9]: 16 µM·h
concentration at 2 h [10]: 2.62 µM
IC50 (Cytochrome P450 2C9): 6900 nM
AUC [11]: 72 µM·h
inhibition (INH) (Cytochrome P450 2C19): Not Active
inhibition (INH) (Cytochrome P450 1A2): Not Active
bioavailability [12]: 45%
Cmax [13]: 5.2 µM
inhibition (INH) (Cytochrome P450 3A4): Not Active
Ki [14]: 2020 nM
half-life [15]: 4.1 h
half-life [16]: 4.3 h

O=S(=O)(Nc1cccc(F)n1)c1cc(F)c(O[C@H]2CCN(CC(F)(F)F)C[C@@H]2c2ccc(F)c(F)c2)c(F)c1 (stereo in doubt; (-)-6)
inhibition (INH) (Cytochrome P450 2D6): Not Active
Kp at 2 h [3]: 0.32
inhibition at 10 µM (hERG (KCNH2)): 5%
clearance [4]: 3.8 mL/min/kg
Vd [5]: 0.8 L/kg
concentration at 2 h [6]: 6.44 µM
IC50 [17]: 230 nM
inhibition (INH) [18]: Not Active
IC50 [19]: 17.7 nM
IC50 [8]: 39 nM
IC50 [20]: 270 nM
IC50 [21]: 220 nM
selectivity ratio (Nav1.5 (SCN5A)): 24
IC50 [22]: 270 nM
inhibition at 0.1 µM [23]: 23%
IC50 [24]: 15.8 nM
AUC [9]: 7.6 µM·h
concentration at 2 h [10]: 2.03 µM
IC50 [25]: 110 nM
IC50 (Cytochrome P450 2C9): 2200 nM
AUC [11]: 30 µM·h
inhibition (INH) (Cytochrome P450 2C19): Not Active
IC50 [26]: 560 nM
IC50 [27]: 12 nM
IC50 [28]: 110 nM
IC50 [29]: 110 nM
IC50 [30]: 620 nM
inhibition (INH) [31]: Not Active
inhibition (INH) (Cytochrome P450 1A2): Not Active
IC50 [32]: 44 nM
bioavailability [12]: 39%
Cmax [13]: 3.6 µM
inhibition (INH) (Cytochrome P450 3A4): Not Active
inhibition (INH) [33]: Not Active
Ki [14]: 370 nM
half-life [15]: 2.7 h
IC50 [34]: 90 nM
inhibition at 0.1 µM [35]: 84%
half-life [16]: 2.6 h
